Reference: patent publication US20240350430A1, “GROWTH INHIBITOR OF METASTATIC HUMAN PROSTATE CANCER CELLS” (Watanabe Oyster Laboratory Co., Ltd., priority 2021, published 2024)

System: PC-3 cells
Assay: Western blot of protein expression levels in PC-3 cells
Assay type: cell-based, human
Details: DHMBA 10 μM, three days
Procedure: The PC-3 cells (1×10^6 cells/10 ml, 100-mm dish) were cultured in a DMEM culture fluid containing 10% of FBS, 1% of P/S, and 1% of fungizone under 5% of CO2, at 37° C., for three days. In addition, the culture fluid contained the DHMBA (10 μM). After the culture, the cells were adjusted by adding a cell lysis buffer (Cell Signaling Technology, Danvers, MA, USA) containing proteolytic enzyme and a protein phosphatase activity inhibitor. The cell solution was centrifuged at 17,000×g at 4° C. for 10 minutes to collect the supernatant. An amount of protein in the supernatant was measured using Bio-Rad Protein Assay Dye (Bio-Rad Laboratories, Inc., Hercules, CA, USA) with albumin as reference protein. Protein samples were stored in a freezer at −80° C. until being used. Using 40 μg of a protein sample solution, the product was added to SDS polyacrylamide gel electrophoresis (SDS-PAGE, 12%) and separated. After that, the protein molecules were transferred to a nylon membrane. Immunoblot was performed on the membrane using an antibody that specifically bound to the protein molecules. The antibodies, such as Ras (cat. no. 3339, rabbit), Akt (cat. no. 9272, rabbit), mitogen-activated protein kinase (MAPK: cat. no. 4695, rabbit), phosphorylated-MAPK (cat. no. 4370, rabbit), mechanistic target of rapamycin (mTOR, cat. no. 4517, mouse), Rb (cat. no. 9309, mouse), p21 (cat. no. 2947, rabbit), caveolin-1 (cat. no. 3267, rabbit), and β-actin (cat. no. 3700, mouse), were purchased from Cell Signaling Technology (Danvers, MA, USA). Also, p53 (cat. no. sc-126, mouse), NF-κB p65 (cat. no. sc-109, rabbit), and integrin β1 (cat. no. sc-13590, mouse) were obtained from Santa Cruz Biotechnology, Inc. (Santa Cruz, CA, USA). In addition, rabbit anti-regucalcin antibody was purchased from Sigma-Aldrich (cat. no. HPA029103, rabbit). Target proteins were incubated at low temperature for 16 hours using the primary antibodies described above. After that, using a secondary antibody of horseradish peroxidase-conjugated secondary antibodies (Santa Cruz Biotechnology, Inc., mouse sc-2005 or rabbit sc-2305; diluted 1:1,000), incubation was performed for 60 minutes at room temperature. After that, protein bands were illuminated with chemiluminescence substrate (cat. no. 34577, Thermo Scientific, Rockford, IL, USA) and exposed and detected on X-ray films using a developer.
(§1) The PC-3 cells (1×10^6 cells/10 ml, 100-mm dish) were cultured under 5% of CO2, at 37° C., for three days in a DMEM culture fluid containing 10% of FBS, 1% of P/S, and 1% of fungizone. In addition, the culture fluid contained the DHMBA (10 μM). After the culture, the cells were adjusted by adding a cell lysis buffer (Cell Signaling Technology, Danvers, MA, USA) containing proteolytic enzyme and a protein phosphatase activity inhibitor. Using 40 μg of a protein sample solution, the product was separated by SDS polyacrylamide gel electrophoresis (SDS-PAGE, 12%). After that, the protein molecules were transferred to a nylon membrane. Immunoblot was performed on the membrane using an antibody that specifically bound to the protein molecules.
as §1, with “In FIG. 5(G), the” for “The”, “molecules. […]” for “molecules.”

COc1c(O)cc(CO)cc1O [DHMBA, 3,5-dihydroxy-4-methoxybenzyl alcohol]
expression level of Akt: significantly inhibited | expression level of MAP kinase: significantly inhibited | expression level of NF-κB p65: significantly decreased | expression level of PI3 kinase: significantly inhibited | expression level of Ras: significantly inhibited | expression level of Rb: significantly increased | expression level of caveolin-1: significantly decreased | expression level of integrin β1: significantly decreased | expression level of mTOR: significantly inhibited | expression level of p21: significantly increased | expression level of p53: significantly increased | expression level of phospho-MAP kinase: significantly inhibited | expression level of regucalcin: significantly increased | level of activated caspase 3 (cleaved caspase-3): increased | level of caspase 3: increased
